Several values for one entry are separate records, joined by “and”; a condition that tells them apart may be missing. Identical values can stand only once.
Key:
Assay type in all cases: cell-based, human
A2780 cells = experiment: MTT cell growth assay, A2780; settings: 5 days
Procedure: (§1) Fig. 2 NHWD-870 inhibited BRD4 phosphorylation and c-MYC expression, and suppressed cell growth. a Representative western blot analysis of p-BRD4 (s484/488), BRD4, c-MYC, and GAPDH after treatment of MDA-MB231, SUM159, A2780 ES-2, and H526 cells with JQ-1 or NHWD-870 at the indicated concentrations for 24 h. GAPDH served as the loading control. Selected from three independent experiments. b MTT assays of H526, A2780, ES-2, and MDA-MB231 cells treated with JQ-1 or NHWD-870 at the indicated concentrations for 5 days. Data are presented as mean ± SEM from three independent experiments. c, d Clonogenic assays of H526, A2780, ES-2 and MDA-MB231 cells treated with 250 nM JQ-1 or NHWD-870 for 5 days. Shown are representative images (c) and quantification of colonies (d). […] Shown are representative images (e) and quantification of relative colony sizes (f). Scale bar, 50 μm. Data are presented as mean ± SEM from five independent experiments. p values were calculated using two-tailed, unpaired t tests in this figure. **p < 0.01; ***p < 0.001. Source data are provided as a Source Data file.
(§2) 37℃, 5% CO2. […]

MDA-MB231 cells = experiment: MTT cell growth assay, MDA-MB231; settings: 5 days
Procedure: as §1, §2

HIF1 reporter activity = experiment: HIF1 luciferase reporter assay; set-up: key to HIF1 luciferase reporter activity, relative (Fig.7e): firefly/Renilla luciferase activity ratio, relative to control
Procedure: (§3) Fig. 7 NHWD-870 inhibited CSF1 expression through suppressing BRD4 and HIF1α in tumor cells. a, b Representative western blot analysis of control (Ctrl) and BRD4 knockout (KO) A375 and A2780 cells exposed to 20% or 1% O2 for 24 hours. Selected from three independent experiments. c, d Representative western blot analysis of A375 and A2780 cells treated with DMSO or 25 nM NHWD-870 and exposed to 20% or 1% O2 for 24 h. Selected from three independent experiments. e Relative HIF1 luciferase reporter activity in control (Ctrl), BRD4 knockout (KO), or NHWD-870 treated A375 and A2780 cells exposed to 20% or 1% O2 for 24 h. Data are presented as mean ± SEM from three independent experiments. f RT-qPCR analyses of CSF1 in control (Ctrl), BRD4 knockout (KO), or NHWD-870 treated A375 and A2780 cells exposed to 20% or 1% O2 for 24 hours. Data are presented as mean ± SEM from three independent experiments. g RT-qPCR analyses of HIF1A in A375 or A2780 cells treated with 15 nM NHWD-870 or DMSO control for 24 h. Data are presented as mean ± SEM from three independent experiments. h Genome browser view of BRD4 ChIP-seq peaks on the HIF1A promoter. Shown are BRD4 ChIP and input control of A375 cells (top panel) and BRD4 ChIP of MDA-MB231 cells treated with DMSO or JQ-1 (bottom panel). i BRD4 ChIP-qPCR analyses of the HIF1A promoter in A2780 cells treated with DMSO or NHWD-870 for 72 h. Data are presented as mean ± SEM from three independent experiments. j RT-qPCR analyses of CSF1 in A375 and A2780 cells were transiently transduced with HIF1α, then exposed to 1% O2 for 24 h. Ctrl, Control. Data are presented as mean ± SEM from three independent experiments. k A model showing the effects of NHWD-870 on cancer cell-TAM interaction. NHWD-870 inhibits the proliferation and survival of TAMs partly by inhibiting BRD4 activity, HIF1α expression, and CSF1 secretion by tumor cells, and downregulating CSF1R mediated ERK and PI3K/AKT signaling in TAMs. p values were calculated using two-tailed, unpaired t tests in this figure. *p < 0.05; **p < 0.01; ***p < 0.001. Source data are provided as a Source Data file.
Supplementary Figure 15. […]
Data in (a) and (c-e) are presented as mean ± SEM from 3 independent experiments. p values were calculated using two-tailed, unpaired t tests. **, p<0.01; ***, p<0.001. Source data are provided as a Source […]
All patients had […]
undergone complete cytoreductive surgery.
14. Immunohistochemical staining. Paraffin-embedded implantation samples isolated from peritoneal metastasis of EOC patients (128 cases) were sectioned at a thickness of 4μm. To stain CD68, CSF1 and p-BRD4, the slides were first deparaffinized in xylene and rehydrated with gradient concentrations of alcohol under standard procedures. After rehydration, the slides were immersed in 0.01 mol/L citrate buffer (pH 6.0) and heated (95°C) for 15 min for antigen retrieval.
Then, the samples were incubated with 3% hydrogen peroxide (H2O2) for 10 minutes followed by 10% normal goat serum blocking for 10 minutes. Subsequently, the sections were incubated with rabbit polyclonal anti-human CD68 antibody (dilution 1:100) (sc-20060, Santa Cruz Biotechnology) and anti-human p-BRD4

HIF1A mRNA = experiment: RT-qPCR of HIF1A in A375 or A2780 cells
Procedure: as §3, with “Shown are BRD4 ChIP and input control of A375 cells (top panel) and BRD4 ChIP of MDA-MB231 cells treated with DMSO or JQ-1 (bottom panel). i BRD4 ChIP-qPCR analyses of the HIF1A promoter in A2780 cells treated with DMSO or NHWD-870 for 72 h. Data are presented as mean ± SEM from three independent experiments. j RT-qPCR analyses of CSF1 in A375 and A2780 cells were transiently transduced with HIF1α, then exposed to 1% O2 for 24 h. Ctrl, Control. Data are presented as mean ± SEM from three independent experiments. k A model showing the effects of NHWD-870 on cancer cell-TAM interaction.” left out, “Source data are provided as a Source Data file.” left out
Total RNA was extracted with RNeasy plus mini kit (Qiagen), and then cDNA was synthesized by iScript™ cDNA Synthesis Kit (Bio-Rad). qPCR was performed using a CFX96 Real-time PCR Instrument (BioRad). Data were collected using CFX Manager version 3.1.1517.823 and analyzed using Microsoft Excel 2010. Relative expression levels were determined by normalization to human GAPDH using the ∆∆Ct method. […]

Compound: Cc1nnn(C)c1-c1cnc2c3c4cnn(C)c4ccc3n([C@H](c3ccccc3)C3CCOCC3)c2c1 [NHWD-870]
- MTT assay, relative cell number (A2780 cells; A2780, 0.1 nM): 0.974 and 0.959 and 0.985
- MTT assay, relative cell number (A2780 cells; A2780, 1 nM): 0.705 and 0.725 and 0.731
- MTT assay, relative cell number (A2780 cells; A2780, 10 nM): 0.252 and 0.282 and 0.215
- MTT assay, relative cell number (A2780 cells; A2780, 100 nM): 0.025 and 0.047 and 0.033
- MTT assay, relative cell number (A2780 cells; A2780, 500 nM): 0
- MTT assay, relative cell number (A2780 cells; A2780, 1000 nM): 0
- MTT assay, relative cell number (A2780 cells; A2780, 5000 nM): 0
- MTT assay, relative cell number (A2780 cells; A2780, 10000 nM): 0
- MTT assay, relative cell number (MDA-MB231 cells; MDA-MB231, 0.1 nM): 0.965 and 0.95 and 0.937
- MTT assay, relative cell number (MDA-MB231 cells; MDA-MB231, 1 nM): 0.701 and 0.703 and 0.725
- MTT assay, relative cell number (MDA-MB231 cells; MDA-MB231, 10 nM): 0.368 and 0.306 and 0.338
- MTT assay, relative cell number (MDA-MB231 cells; MDA-MB231, 100 nM): 0.083 and 0.065 and 0.074
- MTT assay, relative cell number (MDA-MB231 cells; MDA-MB231, 500 nM): 0
- MTT assay, relative cell number (MDA-MB231 cells; MDA-MB231, 1000 nM): 0
- MTT assay, relative cell number (MDA-MB231 cells; MDA-MB231, 5000 nM): 0
- MTT assay, relative cell number (MDA-MB231 cells; MDA-MB231, 10000 nM): 0
- HIF1 luciferase reporter activity, relative (Fig.7e) (HIF1 reporter activity; A375, 1% O2): 3.6595 and 5.4118 and 3.2149
- HIF1 luciferase reporter activity, relative (Fig.7e) (HIF1 reporter activity; A375, 20% O2): 0.7214 and 0.5505 and 0.6045
- HIF1 luciferase reporter activity, relative (Fig.7e) (HIF1 reporter activity; A2780, 1% O2): 1.7045 and 2.3901 and 2.1842
- HIF1 luciferase reporter activity, relative (Fig.7e) (HIF1 reporter activity; A2780, 20% O2): 0.5644 and 0.5674 and 0.4042
- HIF1 reporter activity (HIF1 reporter activity; A2780 and A375 cells, 20% or 1% O2, 24 h): significantly decreased HIF1 reporter activity
- HIF1A mRNA levels (HIF1A mRNA; 15 nM, 24 h, A375 or A2780 cells): decreased HIF1A mRNA levels
- HIF1A mRNA, relative to DMSO (Fig.7g) (HIF1A mRNA; A375): 0.3638 and 0.3259 and 0.3497
- HIF1A mRNA, relative to DMSO (Fig.7g) (HIF1A mRNA; A2780): 0.269 and 0.2453 and 0.2176

From paper PMC7156724, “Potent BRD4 inhibitor suppresses cancer cell-macrophage interaction” (Nature Communications, 2020)
